Common to all, as to type: cell-based
Test [1] relates to T47D (PI3Kα H1047R mutant) cells. Put plainly: CellTiter-Glo 2.0 luminescent cell viability assay, 72 hours, T47D cells. To be noted: Homo sapiens, T47D, 72 h, T47D (PI3Kα H1047R mutant) cells, CellTiter-Glo, approximately 72 hours; read-out: T47D (H1047R mutant) Viability IC50. In short, it runs like this:
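Viability was measured by CellTiter-Glo 2.0 luminescence after approximately 72 h of compound exposure at 37° C. Plating was 1000 cells per well the day before dosing, with ten 1:4 dilutions from a 10 µM top concentration. Values as percent of vehicle were fitted by variable-slope log(inhibitor) regression to give IC50.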
(In general: Cellular ATP, detected with luciferase, serves as a proxy for viable cell number.)

Test [2] relates to MKN1 (PI3Kα E545K mutant) cells. Put plainly: CellTiter-Glo 2.0 luminescent cell viability assay, 72 hours, MKN1 cells. Particulars: Homo sapiens, MKN-1; MKN1 (PI3Kα E545K mutant) cells, CellTiter-Glo, approximately 72 hours; read-out: MKN1 (E545K) Viability IC50. As to the method: This Example illustrates that exemplary compounds of the present invention decrease the viability of cells.
The ability of a compound of Formula (I) to decrease the viability of cells was measured using CellTiter-Glo 2.0 (CTG) Luminescent Cell Viability Assay (#G9241) obtained from Promega (Madison, WI).
To prepare assay plates for viability assays, cells were trypsinized, resuspended in fresh media, and viable cells were counted utilizing trypan blue exclusion. T47D, SKBR3, or MKN1 cells were seeded at 1000 cells in 30 μl per well in a solid white flat bottom 384 cell culture plate (Perkin Elmer #6007680) and incubated at 37° C. overnight.
Assay day 1, cells were dosed using an Echo Liquid Handler (Beckman Coulter) with compounds at a 10 um starting concentration and serially diluted (1:4) for a total of 10 concentrations. Cells were incubated for approximately 72 hours with the compounds (solubilized in DMSO) at 37° C. After 72 hours of treatment, cell plates were equilibrated to room temperature before adding 15 μl of CTG to each well, plates were then covered in aluminum foil to protect from light, incubated at room temperature for 30 minutes on a microtiter plate shaker, and luminescence readings were collected using a CLARIOstar microplate reader (BMG Labtech, Germany). Percent of vehicle control values were plotted as log (inhibitor) vs. response-Variable slope (four parameters) for curve fitting and IC50 values were determined using XLfit.

Test [3] concerns T47D (PI3Kα H1047R mutant) cells. Put plainly: Inhibition of pAKT formation, alphaLISA SureFire Ultra AKT 1/2/3 (pS473), T47D cells. Particulars: Homo sapiens, T47D, T47D (PI3Kα H1047R mutant) cells; inhibition of pAKT (pS473) formation; approximately one hour or 24 hours treatment; read-out: T47D pAKT (H1047R mutant) IC50. A digest of the protocol:
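AKT Ser473 phosphorylation was quantified by alphaLISA SureFire Ultra after roughly 1 h or 24 h compound exposure at 37 °C. Cells were T47D (12,000/well in HBSS), treated with a 10-point 1:4 series starting at 10.4 μM. Percent of control used alpelisib background and DMSO reference, and IC50 came from four-parameter logistic fitting.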

The subject of test [4] is SKBR3 (PI3Kα wild type) cells. Put plainly: Inhibition of pAKT formation, alphaLISA SureFire Ultra AKT 1/2/3 (pS473), SKBR3 cells. To be noted: Homo sapiens, SK-BR-3; Inhibition of pAKT in SKBR3 (PI3Kα wild type) cells; read-out: SKBR3 (WT) pAKT IC50 (nM) (H1047R mutant) IC50. As to the method: (§1) The ability of a compound of Formula (I) to inhibit the formation of pAKT was measured using alphaLISA Surefire Ultra AKT 1/2/3 (pS473) Assay Kit (#ALSU-PAKT-B50K) was obtained from Perkin Elmer (Waltham, MA).
(§2) To prepare assay plates for pAKT alphaLISA assays, cells were trypsinized, resuspended in fresh media, and viable cells were counted utilizing trypan blue exclusion. Prior to seeding, cells were washed with PBS and resuspended in HBSS (Gibco, #14025092). T47D (12,000/w), SKBR3(12,000/w), or MKN1(24,000/w) cells were seeded at 12 μl per well in a solid white flat bottom 384 cell culture plate (Perkin Elmer #6007680).
(§3) Immediately after seeding, cells were dosed using an Echo Liquid Handler (Beckman Coulter) with compounds at a […] starting concentration and serially diluted (1:4) for a total of 10 concentrations. […] Cells were incubated with the compounds (solubilized in DMSO) for approximately one hour or 24 hours at 37° C. After one hour (or 24 hours) of treatment, cells were lysed with 3 μl of the 5× lysis buffer (provided and incubated at room temperature for 15 min on a microtiter plate shaker). Once cells were sufficiently lysed, 7.5 μl of the acceptor bead mix (made using the manufacturers recommended dilutions) was added to each well and left on the microtiter plate shaker for 1 min prior to incubating plates at room temperature for one hour, in the absence of light. After one hour of incubation with the acceptor bead mix, 7.5 μl of the donor bead mix (made using the manufacturers recommended dilutions) was added to each well and left on the microtiter plate shaker for 1 min prior to incubating plates at room temperature overnight in the absence of light. Plates were then imaged the following day using a CLARIOstar microplate reader (BMG Labtech, Germany).
(§4) Percent of control values were calculated by subtracting the average signal from the positive control (alpelisib) treated wells from all treated wells (including DMSO control wells) and then divided by the average signal from the vehicle DMSO treated control wells. Percent of vehicle control values were plotted as log (inhibitor) vs. response-Variable slope (four parameters) for curve fitting and IC50 values were determined using XLfit.
(§5) Key: N.D. =not determined

The test system of test [5] is SKBR3 (PI3Kα wild type) cells. Put plainly: CellTiter-Glo 2.0 luminescent cell viability assay, 72 hours, SKBR3 cells. Particulars: Homo sapiens, SK-BR-3, 72 h, SKBR3 (PI3Kα wild type) cells, CellTiter-Glo, approximately 72 hours; read-out: SKBR3 (WT) Viability IC50. In short, it runs like this:
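Viability measured via CTG luminescence following roughly 72 hours of compound exposure at 37° C. Dosing used a 10 um starting concentration diluted 1:4 over 10 points; percent-of-vehicle data fitted with a variable-slope four-parameter model for IC50.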

Test [6] relates to MKN1 (PI3Kα E545K mutant) cells. Put plainly: Inhibition of pAKT formation, alphaLISA SureFire Ultra AKT 1/2/3 (pS473), MKN1 cells. To be noted: Homo sapiens, MKN-1; MKN1 (PI3Kα E545K mutant) cells; inhibition of pAKT (pS473) formation; approximately one hour or 24 hours treatment; read-out: MKN1 (E545K) pAKT IC50. Here is the method:
as §1, §2, §3, §4, §5
(In Alpha technology, singlet oxygen from a donor bead excites a nearby acceptor bead.)

SMILES strings stand for the structures.

By IC50 is commonly meant the midpoint of a concentration-inhibition curve.

On to `Cc1cc([C@@H](C)Nc2ccccc2C(=O)O)c2nc(N3CCCCC3)cc(=O)n2c1` (single isomer, unassigned) [Example 3-1], for which the IC50 in test [1] is 1.27 µM; in test [2] it was greater than 10 µM; in test [3], 0.0149 µM; in test [4], greater than 10000 nM; in test [5] it was greater than 10 µM; in test [6], 2.5 µM.
In the case of `Cc1cc([C@H](C)Nc2ccccc2C(=O)O)c2nc(N3CCCCC3)cc(=O)n2c1` (single isomer, unassigned) [Example 3-2], the concentration for half-maximal inhibition (IC50) was greater than 10 µM in test [1]; greater than 10 µM in test [2]; 1.91 µM in test [3]; greater than 10000 nM in test [4]; greater than 10 µM in test [5]; 0.755 µM in test [6].
As for `Cc1cc([C@@H](C)Nc2ccccc2C(=O)O)c2nc(N3CCC(C)(C)CC3)c(C)c(=O)n2c1` (single isomer, unassigned) [Example 5-1], the half-inhibitory concentration (IC50) in test [1] is 0.461 µM; in test [2] it was greater than 10 µM; in test [3], 0.03 µM; in test [4], 1820 nM; in test [5] it was greater than 10 µM; in test [6] it was 1.39 µM.
`Cc1cc([C@H](C)Nc2ccccc2C(=O)O)c2nc(N3CCC(C)(C)CC3)c(C)c(=O)n2c1` (single isomer, unassigned) [Example 5-2]: the half-inhibitory concentration (IC50) in test [1] was 9.03 µM; in test [3], greater than 10 µM; in test [4], greater than 10000 nM; in test [5] it was greater than 10 µM; in test [6], greater than 10 µM.
Consider `Cc1cc([C@H](C)Nc2ccccc2C(=O)O)c2nc(N3CCC(C)(C)CC3)cc(=O)n2c1` (single isomer, unassigned) [Example 5-4], for which the IC50 in test [1] was 0.98 µM; in test [2], greater than 10 µM; in test [3], 0.0135 µM; in test [4], 7070 nM; in test [5], greater than 10 µM; in test [6], 1.95 µM.
As for `Cc1cc([C@@H](C)Nc2ccccc2C(=O)O)c2nc(N3CCC(C)(C)CC3)cc(=O)n2c1` (single isomer, unassigned) [Example 5-5], the 50% inhibitory concentration (IC50) in test [1] was 8.02 µM; in test [2], greater than 10 µM; in test [3], 1.21 µM; in test [4], greater than 10000 nM; in test [5], greater than 10 µM; in test [6], greater than 10 µM.
In the case of `Cc1cc([C@H](C)Nc2ccccc2C(=O)O)c2nc(N3Cc4ccccc4C3)c(C)c(=O)n2c1` (single isomer, unassigned) [Example 5-9-1], the IC50 in test [1] was 0.316 µM; in test [2] it was greater than 10 µM; in test [3], 0.0117 µM; in test [4], 4550 nM; in test [5] it was greater than 10 µM; in test [6], 0.271 µM.
Turning to `Cc1cc([C@@H](C)Nc2ccccc2C(=O)O)c2nc(N3Cc4ccccc4C3)c(C)c(=O)n2c1` (single isomer, unassigned) [Example 5-9-2], the IC50 in test [1] was 9.68 µM; in test [2] it was greater than 10 µM; in test [3] it was 3.01 µM; in test [4], greater than 10000 nM; in test [5] it was greater than 10 µM; in test [6], greater than 10 µM.
`Cc1cc(C(C)Nc2cccc(O)c2C(=O)O)c2nc(N3CCCCC3)cc(=O)n2c1` (centres unmarked) [Example 3-4, 2-hydroxy-6-((1-(7-methyl-4-oxo-2-(piperidin-1-yl)-4H-pyrido[1,2-a]pyrimidin-9-yl)ethyl)amino)benzoic acid]: the IC50 in test [3] was 2.28 µM; in test [4], greater than 10000 nM; in test [6], 8.83 µM.
For `Cc1cc(C(C)Sc2ccccc2C(=O)O)c2nc(N3CCCCC3)cc(=O)n2c1` (centres unmarked) [Example 3-10, 2-((1-(7-methyl-4-oxo-2-(piperidin-1-yl)-4H-pyrido[1,2-a]pyrimidin-9-yl)ethyl)thio)benzoic acid], the IC50 in test [1] is greater than 10 µM; in test [3], 2.51 µM; in test [4], greater than 10000 nM; in test [5], greater than 10 µM; in test [6], greater than 10 µM.
For the molecule `Cc1cc(C(C)N(C)c2ccccc2C(=O)O)c2nc(N3CCCCC3)cc(=O)n2c1` (centres unmarked) [Example 3-21, 2-(methyl(1-(7-methyl-4-oxo-2-(piperidin-1-yl)-4H-pyrido[1,2-a]pyrimidin-9-yl)ethyl)amino)benzoic acid], the IC50 in test [3] and in test [6] was greater than 10 µM throughout.
In the case of `Cc1cc(C(C)Nc2ccccc2C(=O)O)c2nc(N3CCC4(CC3)CC4)cc(=O)n2c1` (centres unmarked) [Example 3-22, 2-((1-(7-methyl-4-oxo-2-(6-azaspiro[2.5]octan-6-yl)-4H-pyrido[1,2-a]pyrimidin-9-yl)ethyl)amino)benzoic acid], the IC50 was 1.64 µM in test [1]; 0.0705 µM in test [3]; greater than 10000 nM in test [4]; 0.799 µM in test [5]; 3.25 µM in test [6].
As to `Cc1cc([C@@H](C)Nc2ccccc2C(=O)O)c2nc(N3CCCC3)c(C#N)c(=O)n2c1` [Example 10-73, (R)-2-((1-(3-cyano-7-methyl-4-oxo-2-(pyrrolidin-1-yl)-4H-pyrido[1,2-a]pyrimidin-9-yl)ethyl)amino)benzoic acid], the IC50 was 0.135 µM in test [1], 0.00329 µM in test [3], 1030 nM in test [4] and greater than 10 µM in test [5].
As to `Cc1cc([C@@H](C)Nc2ccccc2C(=O)O)c2nc(N3CCCCC3)c(C)c(=O)n2c1` [Example 10-74, (R)-2-((1-(3,7-dimethyl-4-oxo-2-(piperidin-1-yl)-4H-pyrido[1,2-a]pyrimidin-9-yl)ethyl)amino)benzoic acid], the IC50 in test [1] was 0.12 µM; in test [3] it was 0.00323 µM; in test [4] it was 1460 nM; in test [5], greater than 10 µM.
The matching figures for `Cc1cc([C@@H](C)Nc2ccccc2C(=O)O)c2nc(N3CCCCC3)c(C#N)c(=O)n2c1` [Example 10-99, (R)-2-((1-(3-cyano-7-methyl-4-oxo-2-(piperidin-1-yl)-4H-pyrido[1,2-a]pyrimidin-9-yl)ethyl)amino)benzoic acid]: 0.0862 µM, 0.000978 µM, 2260 nM and 9.94 µM.

The values above are taken from US20260078120A1, “SUBSTITUTED PYRIDOPYRIMIDINONES” (MIRATI THERAPEUTICS, INC., priority 2022, published 2026).
